Test results as given in US20150018311A1, “THERAPEUTIC BORON-CONTAINING COMPOUNDS” (priority 2012, published 2015).

Legend:
Assay in all cases: Growth in liquid media in presence of test compound
Format in all cases: cell-based
[1] = system: Mycobacterium tuberculosis (H37Rv)
[2] = system: Candida albicans (ATCC 90028)
Description: (§1) Test organisms used were the bacterial strains Escherichia coli (ATCC 25922), Pseudomonas aeruginosa (ATCC 27853), Staphylococcus aureus (ATCC 25923), Streptococcus pyogenes (ATCC 19615), and Mycobacterium tuberculosis (H37Rv), and the yeast strain Candida albicans (ATCC 90028).
(§2) The liquid media used for growth were Luria-Bertani (Becton Dickinson, Sparks, Md.) and Mueller-Hinton (bio-Merieux, Paris, France) broths, but with Saburo medium for Candida and Middlebrook 7H9 medium (Difco) for mycobacteria.
(§3) The strains were grown at 37° C. and after suitable cell concentrations had been reached, 100 μL of each cell suspension was added to a tube with growth media and test compound. Cultivation of the bacteria was then carried out in the presence of each test compound at 37° C. and the tubes examined for visible growth. The compounds were tested at concentrations of either 500 mg/l, 50 mg/l or 5 mg/l. This assay was repeated twice.
(§4) Some compounds were only tested against some test organisms. It will be appreciated that the charge of these molecules will depend on the environment, some of the Examples are shown with a suitable counter ion, some without.

[3] = system: Escherichia coli (ATCC 25922)
Description: as §1, §2, §3, §4

[4] = system: Pseudomonas aeruginosa (ATCC 27853)
Description: as §1, §2, §3, §4

[5] = system: Staphylococcus aureus (ATCC 25923)
Description: as §1, §2, §3, §4

[6] = system: Streptococcus pyogenes (ATCC 19615)
Description: as §1, §2, §3, §4

Q: `N[C@@H](Cc1ccccc1)C(=O)NC[C@@H](Cc1ccccc1)[B-](F)(F)F.[K+]` [Compound 42] was tested. Which “Growth in the presence of test compound, M. tuberculosis” value (shortened to “Growth … M. tuberculosis”) ([1]; 5 mg/L) did it give?
A: +

Q: And the “Growth … M. tuberculosis” value ([1]; 50 mg/L)?
A: −

Q: And the “Growth … M. tuberculosis” value ([1]; 500 mg/L)?
A: −

Q: And the “Growth in the presence of test compound, C. albicans” value (shortened to “Growth in the presence … C. albicans”) ([2]; 5 mg/L)?
A: +

Q: And the “Growth in the presence … C. albicans” value ([2]; 50 mg/L)?
A: ±

Q: What about the “Growth in the presence … C. albicans” value ([2]; 500 mg/L) of the same molecule?
A: ±

Q: What about the “Growth in the presence of test compound, E. coli” value (shortened to “Growth in the presence … E. coli”) ([3]; 5 mg/L) of the same molecule?
A: +

Q: What about the “Growth in the presence … E. coli” value ([3]; 50 mg/L) of the same molecule?
A: +

Q: What about the “Growth in the presence … E. coli” value ([3]; 500 mg/L) of the same molecule?
A: +

Q: What about the “Growth in the presence of test compound, P. aeruginosa” value (from here on “Growth … P. aeruginosa”) ([4]; 5 mg/L) of the same molecule?
A: +

Q: And the “Growth … P. aeruginosa” value ([4]; 50 mg/L)?
A: +

Q: And the “Growth … P. aeruginosa” value ([4]; 500 mg/L)?
A: +

Q: What about the “Growth in the presence of test compound, S. aureus” value (“Growth in the presence … S. aureus” below) ([5]; 5 mg/L) of the same molecule?
A: +

Q: And the “Growth in the presence … S. aureus” value ([5]; 50 mg/L)?
A: +

Q: What about the “Growth in the presence … S. aureus” value ([5]; 500 mg/L) of the same molecule?
A: +

Q: And the “Growth in the presence of test compound, S. pyogenes” value (shortened to “Growth in the presence … S. pyogenes”) ([6]; 5 mg/L)?
A: +

Q: What about the “Growth in the presence … S. pyogenes” value ([6]; 50 mg/L) of the same molecule?
A: +

Q: What about the “Growth in the presence … S. pyogenes” value ([6]; 500 mg/L) of the same molecule?
A: ±

Q: Which results are given for `CC1(C)C2CC3OB([C@H](CCc4ccccc4)CNC(=O)[C@@H](N)Cc4ccccc4)O[C@]3(C)C1C2` (stereo partly drawn) [Compound 18]?
A: Growth in the presence of test compound, M. tuberculosis ([1]; 5 mg/L): +; Growth in the presence of test compound, M. tuberculosis ([1]; 50 mg/L): −; Growth in the presence of test compound, M. tuberculosis ([1]; 500 mg/L): −; Growth in the presence of test compound, C. albicans ([2]; 5 mg/L): +; Growth in the presence of test compound, C. albicans ([2]; 50 mg/L): ±; Growth in the presence of test compound, C. albicans ([2]; 500 mg/L): ±; Growth in the presence of test compound, E. coli ([3]; 5 mg/L): +; Growth in the presence of test compound, E. coli ([3]; 50 mg/L): +; Growth in the presence of test compound, E. coli ([3]; 500 mg/L): +; Growth in the presence of test compound, P. aeruginosa ([4]; 5 mg/L): +; Growth in the presence of test compound, P. aeruginosa ([4]; 50 mg/L): ±; Growth in the presence of test compound, P. aeruginosa ([4]; 500 mg/L): ±; Growth in the presence of test compound, S. aureus ([5]; 5 mg/L): +; Growth in the presence of test compound, S. aureus ([5]; 50 mg/L): −; Growth in the presence of test compound, S. aureus ([5]; 500 mg/L): ±; Growth in the presence of test compound, S. pyogenes ([6]; 5 mg/L): +; Growth in the presence of test compound, S. pyogenes ([6]; 50 mg/L): ±; Growth in the presence of test compound, S. pyogenes ([6]; 500 mg/L): ±

Q: What does the source list for `CC1(C)C2CC3OB([C@H](CNC(=O)[C@@H](N)Cc4ccccc4)Cc4ccccc4)O[C@@]3(C)C1C2` (stereo partly drawn) [Compound 14]?
A: Growth in the presence of test compound, M. tuberculosis ([1]; 5 mg/L): +; Growth in the presence of test compound, M. tuberculosis ([1]; 50 mg/L): −; Growth in the presence of test compound, M. tuberculosis ([1]; 500 mg/L): −; Growth in the presence of test compound, C. albicans ([2]; 5 mg/L): +; Growth in the presence of test compound, C. albicans ([2]; 50 mg/L): ±; Growth in the presence of test compound, C. albicans ([2]; 500 mg/L): ±; Growth in the presence of test compound, E. coli ([3]; 5 mg/L): +; Growth in the presence of test compound, E. coli ([3]; 50 mg/L): +; Growth in the presence of test compound, E. coli ([3]; 500 mg/L): +; Growth in the presence of test compound, P. aeruginosa ([4]; 5 mg/L): +; Growth in the presence of test compound, P. aeruginosa ([4]; 50 mg/L): +; Growth in the presence of test compound, P. aeruginosa ([4]; 500 mg/L): −; Growth in the presence of test compound, S. aureus ([5]; 5 mg/L): +; Growth in the presence of test compound, S. aureus ([5]; 50 mg/L): +; Growth in the presence of test compound, S. aureus ([5]; 500 mg/L): +; Growth in the presence of test compound, S. pyogenes ([6]; 5 mg/L): +; Growth in the presence of test compound, S. pyogenes ([6]; 50 mg/L): +; Growth in the presence of test compound, S. pyogenes ([6]; 500 mg/L): ±

Q: How did the “Growth … M. tuberculosis” value ([1]; 5 mg/L) turn out when `C[C@@H](B1OC2CC3CC(C3(C)C)[C@@]2(C)O1)[C@@H](Cc1ccccc1)NC(=O)[C@@H]1CCCN1` (stereo partly drawn) [Compound 29] was run?
A: +

Q: What about the “Growth … M. tuberculosis” value ([1]; 50 mg/L) of the same molecule?
A: +

Q: What about the “Growth … M. tuberculosis” value ([1]; 500 mg/L) of the same molecule?
A: −

Q: What about the “Growth in the presence … C. albicans” value ([2]; 5 mg/L) of the same molecule?
A: +

Q: And the “Growth in the presence … C. albicans” value ([2]; 50 mg/L)?
A: +

Q: And the “Growth in the presence … C. albicans” value ([2]; 500 mg/L)?
A: ±

Q: What about the “Growth … P. aeruginosa” value ([4]; 5 mg/L) of the same molecule?
A: +

Q: And the “Growth … P. aeruginosa” value ([4]; 50 mg/L)?
A: +

Q: What about the “Growth … P. aeruginosa” value ([4]; 500 mg/L) of the same molecule?
A: ±

Q: What about the “Growth in the presence … S. aureus” value ([5]; 5 mg/L) of the same molecule?
A: +

Q: And the “Growth in the presence … S. aureus” value ([5]; 50 mg/L)?
A: +

Q: And the “Growth in the presence … S. aureus” value ([5]; 500 mg/L)?
A: −

Q: And the “Growth in the presence … S. pyogenes” value ([6]; 5 mg/L)?
A: +

Q: And the “Growth in the presence … S. pyogenes” value ([6]; 50 mg/L)?
A: +

Q: And the “Growth in the presence … S. pyogenes” value ([6]; 500 mg/L)?
A: −
